Tests used:
[1] = system: T-47D (breast); assay: antiproliferative assay (NCI protocol), T-47D; type: cell-based, human; conditions: antiproliferative activity, multidrug-resistant line
Procedure: (§1) The antiproliferative assays were conducted following the protocol of the US National Cancer Institute (NCI), with minor modifications.
(§2) The coumarin-benzoxazole hybrids were also tested as antiproliferative agents against a panel of six human solid tumour cell lines (Table 2): A549 (non-small cell lung), HBL-100 (breast), HeLa (cervix), SW1573 (non-small cell lung) as examples of drug-sensitive lines, and T-47D (breast) and WiDr (colon) as multidrug-resistant lines. A non-tumour cell line (BJ-hTert, human fibroblasts) was also used for analysing the selectivity. Chemotherapeutic agents 5-fluorouracyl (5-FU) and cisplatin (CDDP) were included in the study as drug references.

[2] = system: HBL-100 (breast); assay: antiproliferative assay (NCI protocol), HBL-100; type: cell-based, human; conditions: antiproliferative activity
Procedure: as §1, §2

[3] = system: BJ-hTert, human fibroblasts; assay: antiproliferative assay (NCI protocol), non-tumour BJ-hTert; type: cell-based; conditions: for GI50: non-tumour cell line, human fibroblasts; for activity against the non-tumour cell line (in words): BJ-hTert
Procedure: as §1, §2

[4] = system: HeLa (cervix); assay: antiproliferative assay (NCI protocol), HeLa; type: cell-based, human; conditions: antiproliferative activity
Procedure: as §1, §2

[5] = system: A549 (non-small cell lung); assay: antiproliferative assay (NCI protocol), A549; type: cell-based, human; conditions: antiproliferative activity
Procedure: as §1, §2

[6] = system: WiDr (colon); assay: antiproliferative assay (NCI protocol), WiDr; type: cell-based, human; conditions: antiproliferative activity, multidrug-resistant line
Procedure: as §1, §2

[7] = system: SW1573 (non-small cell lung); assay: antiproliferative assay (NCI protocol), SW1573; type: cell-based, human; conditions: antiproliferative activity
Procedure: as §1, §2

[8] = molecular target: human CA IV (Homo sapiens, UniProt P22748); assay: stopped-flow CO2 hydrase assay, CA IV
Chain of human CA IV (P22748 19-312): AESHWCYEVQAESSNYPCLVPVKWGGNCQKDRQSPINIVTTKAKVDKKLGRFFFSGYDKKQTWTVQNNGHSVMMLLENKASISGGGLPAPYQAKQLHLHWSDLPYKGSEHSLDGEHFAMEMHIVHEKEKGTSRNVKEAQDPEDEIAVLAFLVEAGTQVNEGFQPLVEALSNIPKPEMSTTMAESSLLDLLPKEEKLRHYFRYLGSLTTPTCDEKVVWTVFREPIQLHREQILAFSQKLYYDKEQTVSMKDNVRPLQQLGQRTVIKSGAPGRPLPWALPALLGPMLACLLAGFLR
Excerpt: (§3) A stopped-flow CO2 hydrase assay has been employed as reported earlier[10–12].

[9] = molecular target: human CA II (Homo sapiens, UniProt P00918); assay: stopped-flow CO2 hydrase assay, CA II
Excerpt: as §3

[10] = molecular target: human CA IX (Homo sapiens, UniProt Q16790); assay: stopped-flow CO2 hydrase assay, CA IX; conditions: for Selectivity ratio I/IX: ratio of Ki CA I / CA IX; for Selectivity ratio II/IX: ratio of Ki CA II / CA IX
Excerpt: as §3

[11] = molecular target: human CA I (Homo sapiens, UniProt P00915); assay: stopped-flow CO2 hydrase assay, CA I
Chain of human CA I (P00915 whole entry): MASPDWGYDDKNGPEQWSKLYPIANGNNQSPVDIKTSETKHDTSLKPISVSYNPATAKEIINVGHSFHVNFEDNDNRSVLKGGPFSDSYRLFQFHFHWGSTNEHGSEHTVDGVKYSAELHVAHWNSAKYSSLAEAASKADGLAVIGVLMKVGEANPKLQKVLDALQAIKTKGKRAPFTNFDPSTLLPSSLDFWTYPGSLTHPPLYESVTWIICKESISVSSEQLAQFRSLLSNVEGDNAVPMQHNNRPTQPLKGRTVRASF
Excerpt: as §3

[12] = molecular target: human CA VII (Homo sapiens, UniProt P43166); assay: stopped-flow CO2 hydrase assay, CA VII
Chain of human CA VII (P43166 whole entry): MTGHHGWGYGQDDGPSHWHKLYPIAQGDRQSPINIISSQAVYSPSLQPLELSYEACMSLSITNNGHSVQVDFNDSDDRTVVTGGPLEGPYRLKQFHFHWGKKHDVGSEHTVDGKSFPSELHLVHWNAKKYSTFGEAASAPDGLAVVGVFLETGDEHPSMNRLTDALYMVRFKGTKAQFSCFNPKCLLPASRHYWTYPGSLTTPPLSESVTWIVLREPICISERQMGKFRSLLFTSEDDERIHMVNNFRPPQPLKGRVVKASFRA
Excerpt: as §3

[13] = molecular target: human CA XII (Homo sapiens, UniProt O43570); assay: stopped-flow CO2 hydrase assay, CA XII; conditions: for Selectivity ratio I/XII: ratio of Ki CA I / CA XII; for Selectivity ratio II/XII: ratio of Ki CA II / CA XII
Chain of human CA XII (O43570 25-354): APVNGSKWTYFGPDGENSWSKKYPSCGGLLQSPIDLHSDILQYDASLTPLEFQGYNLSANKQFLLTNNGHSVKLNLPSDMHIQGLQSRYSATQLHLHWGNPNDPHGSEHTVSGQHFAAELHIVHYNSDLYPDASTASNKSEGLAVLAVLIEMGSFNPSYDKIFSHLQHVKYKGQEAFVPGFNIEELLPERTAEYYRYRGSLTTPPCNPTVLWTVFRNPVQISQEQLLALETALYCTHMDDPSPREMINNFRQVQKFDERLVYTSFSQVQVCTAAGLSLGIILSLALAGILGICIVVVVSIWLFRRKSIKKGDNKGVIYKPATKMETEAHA
Excerpt: as §3

[14] = system: panel of six human solid tumour cell lines; assay: antiproliferative assay, whole panel of tumour cell lines; type: cell-based
Procedure: as §1, §2

| Compound | GI50 ([1]; Homo sapiens, T47D) [µM] | GI50 ([2]; Homo sapiens, HBL-100) [µM] | GI50 ([3]; Fibroblast) [µM] | GI50 ([4]; Homo sapiens, HeLa) [µM] | GI50 ([5]; Homo sapiens, A549) [µM] | GI50 ([6]; Homo sapiens, WiDr) [µM] | GI50 ([7]; Homo sapiens, SW1573) [µM] | activity against the non-tumour cell line (in words) [3] | Ki [8] [µM] | Ki [9] [µM] | Ki [10] [µM] | Selectivity ratio I/IX [10] | Selectivity ratio II/IX [10] | Ki [11] [µM] | Ki [12] [µM] | Ki [13] [µM] | Selectivity ratio I/XII [13] | Selectivity ratio II/XII [13] | other results |
| --- | --- | --- | --- | --- | --- | --- | --- | --- | --- | --- | --- | --- | --- | --- | --- | --- | --- | --- | --- |
| O=c1[nH]cc(F)c(=O)[nH]1 [5-Fluorouracil, reference compound] | 43 ± 16 | 4.4 ± 0.7 | 5.5 ± 0.5 | 16 ± 5 | 2.2 ± 0.3 | 49 ± 7 | 3.3 ± 1.2 |  |  |  |  |  |  |  |  |  |  |  |  |
| [NH2][Pt]([NH2])([Cl])[Cl] [CDDP, cisplatin, reference compound] |  |  |  |  |  |  |  |  |  |  |  |  |  |  |  |  |  |  | GI50 [1]: 17 ± 3 µM; GI50 [2]: 1.9 ± 0.2 µM; GI50 [3]: 14 ± 2 µM; GI50 [4]: 1.8 ± 0.5 µM; GI50 [5]: 4.9 ± 0.2 µM; GI50 [6]: 26 ± 4 µM; GI50 [7]: 2.7 ± 0.4 µM |
| Cc1cc(=O)oc2cc(OCCCNc3nc4ccccc4o3)ccc12 [Compound 8a] | 33 ± 3 | 41 ± 5 | > 50 | 30 ± 2 | 32 ± 1 | 37 ± 4 | 29 ± 4 | weak activity | 0.839 | > 10 | 0.0742 | >134.8 | >134.8 | > 10 | > 10 | 0.0844 | >118.5 | >118.5 |  |
| Cc1cc(=O)oc2cc(OCCCCCNc3nc4ccccc4o3)ccc12 [Compound 8b] | 38 ± 10 | 49 ± 6 | > 100 | 39 ± 1 | 15 ± 6 | 33 ± 1 | 33 ± 4 |  | 0.95 | > 10 | 0.0707 | >141.4 | >141.4 | > 10 | > 10 | 0.0845 | >118.3 | >118.3 |  |
| Cc1cc(=O)oc2cc(OCCCCCCNc3nc4ccccc4o3)ccc12 [Compound 8c] | > 100 | > 100 | > 100 | 96 ± 7 | 8.3 ± 1.6 | > 100 | > 100 |  | 0.984 | > 10 | 0.0823 | >121.5 | >121.5 | > 10 | > 10 | 0.0651 | >153.6 | >153.6 |  |
| Cc1c(C)c2ccc(OCCCCCCNc3nc4ccccc4o3)cc2oc1=O [Compound 8d] | > 100 | 53 ± 14 | > 50 | 29 ± 8 | 15 ± 3 | > 100 | 20 ± 3 | weak activity | 0.802 | > 10 | 0.0645 | >155.0 | >155.0 | > 10 | > 10 | 0.0698 | >143.3 | >143.3 |  |
| Cc1c(Cl)c(=O)oc2cc(OCCCCCCNc3nc4ccccc4o3)ccc12 [Compound 8e] | 4.3 ± 0.1 | 5.1 ± 1.4 | > 100 | 3.9 ± 0.7 | 2.6 ± 0.5 | 4.2 ± 0.5 | 3.1 ± 0.5 |  | 0.82 | > 10 | 0.0743 | >134.6 | >134.6 | > 10 | > 10 | 0.0757 | >132.1 | >132.1 | GI50 ([14]; Homo sapiens, range over the tumour cell lines, read-out: GI50 for all cell lines): 2.6 to 5.1 µM; increased activity compared to 5-FU ([14]; multidrug-resistant cell lines): up to 11.7 fold; increased activity compared to CDDP ([14]; multidrug-resistant cell lines): up to 6.2 fold |
| Cc1cc(=O)oc2cc(OCCCCCNc3nc4cc(Br)ccc4o3)ccc12 [Compound 8h] | 32 ± 7 | 23 ± 5 | > 100 | 16 ± 1 | 6.5 ± 3.1 | 29 ± 1 | 14 ± 1 |  | 0.792 | > 10 | 0.757 | >13.2 | >13.2 | > 10 | > 10 | 0.0807 | >123.9 | >123.9 | decreased activity against CA IX compared to non-substituted counterpart 8b ([10]; versus 8b): 11 fold |
| Cc1cc(=O)oc2cc(OCCCCCNc3nc4cc(-c5ccccc5)ccc4o3)ccc12 [Compound 8i] | > 100 | 30 ± 9 | 25 ± 6 | 28 ± 13 | 41 ± 20 | 78 ± 38 | 60 ± 4 | moderate antiproliferative agent | 6.27 | > 10 | 0.0332 | >301.2 | >301.2 | > 10 | > 10 | 0.0571 | >175.1 | >175.1 |  |
| Cc1cc(=O)oc2cc(OCCCCCNc3nc4cc(S(N)(=O)=O)ccc4o3)ccc12 [Compound 8j] | 34 ± 8 | 27 ± 8 | > 100 | 21 ± 7 | 13 ± 3 | 29 ± 9 | 29 ± 8 |  | 3.47 | 0.516 | 0.0907 | 8.9 | 5.7 | 0.806 | 0.381 | 0.0506 | 15.9 | 10.2 |  |

From publication PMC8667885, “2-Aminobenzoxazole-appended coumarins as potent and selective inhibitors of tumour-associated carbonic anhydrases” (Journal of Enzyme Inhibition and Medicinal Chemistry, 2021)
